Source: patent publication US7041785B1, “B1-bradykinin receptor antagonists and use thereof” (Université de Sherbrooke, priority 1996, dated 2006)
Like-named read-outs stand apart in the source and are kept apart here. Non-standard residues stand in square brackets, D forms with d. Residues, ends and D or L forms follow the SMILES beside them. Tyr(3,5-I2) = N[C@@H](Cc1cc(I)c(O)c(I)c1)C(=O)O; 2Nal = N[C@@H](Cc1ccc2ccccc2c1)C(=O)O; d2Nal = N[C@H](Cc1ccc2ccccc2c1)C(=O)O; Tic = O=C(O)[C@@H]1Cc2ccccc2CN1; dTic = O=C(O)[C@H]1Cc2ccccc2CN1; Ahx = NCCCCCC(=O)O; Sar = CNCC(=O)O

Assays:
B2 receptor = molecular target: T1, B2 receptor (Oryctolagus cuniculus, UniProt Q28642); settings: vs BK; captopril 1 μmol/L; Inactive = no detectable antagonistic effect at ≦ 10 μg/ml
T1 sequence (Q28642 1-367): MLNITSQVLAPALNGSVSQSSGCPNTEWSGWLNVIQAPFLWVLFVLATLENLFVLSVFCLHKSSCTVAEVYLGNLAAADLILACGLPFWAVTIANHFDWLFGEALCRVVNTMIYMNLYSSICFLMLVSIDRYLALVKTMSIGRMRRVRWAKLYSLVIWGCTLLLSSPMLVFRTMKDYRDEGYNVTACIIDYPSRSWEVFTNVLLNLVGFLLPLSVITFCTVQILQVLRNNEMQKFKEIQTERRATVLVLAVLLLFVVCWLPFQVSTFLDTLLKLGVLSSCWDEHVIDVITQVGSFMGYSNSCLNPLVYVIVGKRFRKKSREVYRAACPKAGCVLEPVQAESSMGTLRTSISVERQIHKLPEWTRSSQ

human B1 receptor = molecular target: T2, human B1 receptor (Homo sapiens, UniProt P46663); test: cell-based; settings: for Human umbilical vein B1 receptor α^E: residual agonistic activity at 10 μg/mL
T2 sequence (P46663 1-353): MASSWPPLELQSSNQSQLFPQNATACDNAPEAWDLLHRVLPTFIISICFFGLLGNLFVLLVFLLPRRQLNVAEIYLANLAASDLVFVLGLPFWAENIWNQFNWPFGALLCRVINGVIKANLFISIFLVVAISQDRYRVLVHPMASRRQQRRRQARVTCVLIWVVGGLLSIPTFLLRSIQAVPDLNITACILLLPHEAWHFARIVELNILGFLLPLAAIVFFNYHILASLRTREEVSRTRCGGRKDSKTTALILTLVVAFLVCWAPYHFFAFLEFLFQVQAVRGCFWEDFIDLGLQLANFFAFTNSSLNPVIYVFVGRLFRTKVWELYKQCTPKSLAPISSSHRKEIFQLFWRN
Method in brief: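 Isolated rabbit jugular vein (captopril 1 μmol/L), guinea pig ileum, endothelium-free rabbit aorta and human umbilical vein, in Krebs at 37 °C, with isometric tension recorded. Agonism was tested at 10 μg/mL.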

human B2 receptor = molecular target: T3, human B2 receptor (Homo sapiens, UniProt P30411); test: Human umbilical vein bioassay in presence of Lys(Leu8)desArg9BK, B2 receptor; format: cell-based; settings: vs BK, Lys(Leu8)desArg9BK 1 μmol/L present
T3 construct: Helical strips of HUV were prepared according to Gobeil et al; from tissue; host or cells: human umbilical vein helical strips
T3 sequence (P30411 1-391): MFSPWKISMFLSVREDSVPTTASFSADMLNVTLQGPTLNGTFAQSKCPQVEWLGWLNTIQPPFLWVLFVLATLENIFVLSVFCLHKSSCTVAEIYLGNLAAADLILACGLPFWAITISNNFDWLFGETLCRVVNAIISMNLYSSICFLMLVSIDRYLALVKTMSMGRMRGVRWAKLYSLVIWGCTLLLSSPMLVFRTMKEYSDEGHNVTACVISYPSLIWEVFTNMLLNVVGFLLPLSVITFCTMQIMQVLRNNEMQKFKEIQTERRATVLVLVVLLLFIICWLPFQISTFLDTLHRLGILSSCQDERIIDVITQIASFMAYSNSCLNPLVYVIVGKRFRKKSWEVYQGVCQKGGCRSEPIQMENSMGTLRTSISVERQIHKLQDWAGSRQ
From the text: Tissues were taken from New Zealand white rabbits (1.5–2.5 kg) and Dunken Hartley guinea pigs (250–350 g) of either sex, killed by stunning and exsanguination. Umbilical cords were taken from healthy women 22–40 years old after spontaneous delivery at term. The rabbit jugular vein (RbJV), the guinea pig ileum (GPI), two preparations containing B2 receptors, the rabbit aorta (RbA) (B1 receptor) and the human umbilical vein (HUV), a mixed preparation containing both B1 and B2 receptors^10, were used. Helical strips of RbJV treated with 1 μmol/L of captopril to avoid peptide degradation by the angiotensin-converting enzyme (ACE), alias kininase II were prepared according to Gaudreau et al.^11 Helical strips of RbA devoid of endothelium were prepared according to Furchgott and Bhadrakom^12. Longitudinal segments of GPI were prepared with the procedure described by Rang^13. Helical strips of HUV were prepared according to Gobeil et al.^10. The tissues were suspended in 10-ml organ baths containing warm (37EC), oxygenated (95% O2–5% CO2) Krebs solution of the following composition in mmol/L; NaCl: 118.1; KCl: 4.7; CaCl26H2O: 2.5; KH2PO4: 1.2; MgSO47H2O: 1.18; NaHCO3: 25.0 and D-Glucose: 5.5. The RbA and the HUV were stretched with an initial tension of 2 g, whereas the RbJV and the GPI were loaded with 0.5 g. Changes of tension produced by the various agents were measured with Grass isometric transducers (model FT 03C, Grass Instrument Co., Quincy, Mass.). […] Before testing the drugs, the tissues were allowed to equilibrate for 60–120 min during which time the tissues were repeatedly washed and the tension readjusted every 15 min.
At the beginning of each experiment, a submaximal dose of bradykinin (BK) (9 nmol/L), was applied repeatedly on the RbJV, the GPI or the HUV to ensure that tissues responded with stable contractions. […] A similar protocol was used for the HUV.
Repeated applications of a singl and double concentration of BK (on RbJV, GPI and HUV) and of desArg^9BK (RbA and HUV) were made in the absence and in presence of the various peptides to evaluate their apparent affinities as antagonists, in terms of pA2 (-log10 of the molar concentration of antagonist that reduces the effect of a double concentration of agonist to that of a single one)^14. The antagonists were applied 10 min before measuring the myotropic effects of either BK (the B2 receptor agonist) or desArg^9BK (the B1 receptor agonist). […] All kinin antagonists were initially applied to tissues at concentration of 10 μg/mL to measure their potential agonistic activities (α^E) in comparison with BK (in the B2 receptor preparations) or desArg^9BK (in the B1 receptor preparations).

[1] = Human umbilical vein B1 receptor pA2, vs desArg9BK, HOE140 400 nmol/L present

Row | Structure (SMILES) | Rb.J.V. pA2 (B2 receptor) | Kb (human B1 receptor; [1]) [nM] | Human umbilical vein B2 receptor pA2 (human B2 receptor) | Human umbilical vein B1 receptor α^E (human B1 receptor) | Kb (human B1 receptor) [nM]
1 | CNCC(=O)N[C@@H](CCCNC(=N)N)C(=O)N1CCC[C@H]1C(=O)N1CCC[C@H]1C(=O)NCC(=O)N[C@@H](Cc1ccccc1)C(=O)N[C@@H](CO)C(=O)N1Cc2ccccc2C[C@@H]1C(=O)N[C@@H](CC(C)C)C(=O)O [Compound 9, Sar(D-Tic^7, Leu^8)desArg^9BK] (H-[Sar]RPPGFS[dTic]L-OH; N-terminus and C-terminus assumed) | Inactive |  |  |  | 
2 | CC[C@H](C)[C@H](NC(=O)[C@H]1Cc2ccccc2CN1C(=O)[C@H](CO)NC(=O)[C@H](Cc1ccccc1)NC(=O)CNC(=O)[C@@H]1CCCN1C(=O)[C@@H]1CCCN1C(=O)[C@H](CCCNC(=N)N)NC(=O)[C@H](N)CCCNC(=N)N)C(=O)O [Compound 13, D-Arg(D-Tic^7, Ile^8)desArg^9BK] (H-[dR]RPPGFS[dTic]I-OH; N-terminus and C-terminus assumed) |  | 22.9 | Inactive |  | 
3 | CC[C@H](C)[C@H](NC(=O)[C@@H]1Cc2ccccc2CN1C(=O)[C@H](CO)NC(=O)[C@H](Cc1ccccc1)NC(=O)CNC(=O)[C@@H]1CCCN1C(=O)[C@@H]1CCCN1C(=O)[C@H](CCCNC(=N)N)NC(=O)[C@H](N)CCCNC(=N)N)C(=O)O [Compound 14, D-Arg(L-Tic^7, Ile^8)desArg^9BK] (H-[dR]RPPGFS[Tic]I-OH; N-terminus and C-terminus assumed) |  | 4680 | Inactive |  | 
4 | CC(=O)N[C@@H](CCCCN)C(=O)N[C@@H](CCCNC(=N)N)C(=O)N1CCC[C@H]1C(=O)N1CCC[C@H]1C(=O)NCC(=O)N[C@@H](Cc1ccccc1)C(=O)N[C@@H](CO)C(=O)N[C@H](Cc1ccc2ccccc2c1)C(=O)N[C@@H](CC(C)C)C(=O)O [Compound 18, AcLys(D-βNal^7, Leu^8)desArg^9BK] (Ac-KRPPGFS[d2Nal]L-OH; C-terminus assumed) |  | 35.5 | Inactive | 0 | 
5 | CC[C@H](C)[C@H](NC(=O)[C@@H](Cc1ccc2ccccc2c1)NC(=O)[C@H](CO)NC(=O)[C@H](Cc1ccccc1)NC(=O)CNC(=O)[C@@H]1CCCN1C(=O)[C@@H]1CCCN1C(=O)[C@H](CCCN=C(N)N)NC(=O)[C@H](CCCCN)NC(C)=O)C(=O)O [Compound 19, AcLys(D-βNal^7, Ile^8)desArg^9BK] (Ac-KRPPGFS[d2Nal]I-OH) |  |  |  |  | 3.16
6 | CC[C@H](C)[C@H](NC(=O)[C@H](Cc1ccc2ccccc2c1)NC(=O)[C@H](CO)NC(=O)[C@H](Cc1ccccc1)NC(=O)CNC(=O)[C@@H]1CCCN1C(=O)[C@@H]1CCCN1C(=O)[C@H](CCCNC(=N)N)NC(=O)[C@H](CCCCN)NC(C)=O)C(=O)O [Compound 20, AcLys(L-βNal^7, Ile^8)desArg^9BK] (Ac-KRPPGFS[2Nal]I-OH; C-terminus assumed) |  | 6920 | Inactive | 0 | 
7 | CC(C)C[C@H](NC(=O)[C@@H](Cc1ccc2ccccc2c1)NC(=O)[C@H](CO)NC(=O)[C@H](Cc1ccccc1)NC(=O)CNC(=O)[C@@H]1CCCN1C(=O)[C@@H]1CCCN1C(=O)[C@H](CCCNC(=N)N)NC(=O)[C@H](N)CCCNC(=N)N)C(=O)O [Compound 24, D-Arg(D-βNal^7, Leu^8)desArg^9BK] (H-[dR]RPPGFS[d2Nal]L-OH; N-terminus and C-terminus assumed) |  | 50.1 | Inactive |  | 
8 | CC[C@H](C)[C@H](NC(=O)[C@@H](Cc1ccc2ccccc2c1)NC(=O)[C@H](CO)NC(=O)[C@H](Cc1ccccc1)NC(=O)CNC(=O)[C@@H]1CCCN1C(=O)[C@@H]1CCCN1C(=O)[C@H](CCCNC(=N)N)NC(=O)CNC)C(=O)O [Compound 26, Sar(D-βNal^7, Ile^8)desArg^9BK] (H-[Sar]RPPGFS[d2Nal]I-OH; N-terminus and C-terminus assumed) |  | 47.9 | Inactive |  | 
9 | CC(=O)N[C@@H](Cc1ccc(O)cc1)C(=O)NCCCCCC(=O)N[C@@H](CCCCN)C(=O)N[C@@H](CCCNC(=N)N)C(=O)N1CCC[C@H]1C(=O)N1CCC[C@H]1C(=O)NCC(=O)N[C@@H](Cc1ccccc1)C(=O)N[C@@H](CO)C(=O)N1CCC[C@H]1C(=O)N[C@@H](CC(C)C)C(=O)O [Compound 27, AcTyrεAhxLys(Leu^8)desArg^9BK] | Inactive |  |  |  | 
10 | CNCC(=O)N[C@@H](Cc1ccc(O)cc1)C(=O)NCCCCCC(=O)N[C@@H](CCCCN)C(=O)N[C@@H](CCCNC(=N)N)C(=O)N1CCC[C@H]1C(=O)N1CCC[C@H]1C(=O)NCC(=O)N[C@@H](Cc1ccccc1)C(=O)N[C@@H](CO)C(=O)N1CCC[C@H]1C(=O)N[C@@H](CC(C)C)C(=O)O [Compound 28, SarTyrεAhxLys(Leu^8)desArg^9BK] | Inactive |  |  |  | 
11 | CC[C@H](C)[C@H](NC(=O)[C@@H](Cc1ccc2ccccc2c1)NC(=O)[C@H](CO)NC(=O)[C@H](Cc1ccccc1)NC(=O)CNC(=O)[C@@H]1CCCN1C(=O)[C@@H]1CCCN1C(=O)[C@H](CCCNC(=N)N)NC(=O)[C@H](CCCCN)NC(=O)CCCCCNC(=O)[C@H](Cc1ccc(O)cc1)NC(=O)CNC)C(=O)O [Compound 29, SarTyrεAhxLys(D-βNal^7, Ile^8)desArg^9BK] (H-[Sar]Y[Ahx]KRPPGFS[d2Nal]I-OH; N-terminus and C-terminus assumed) |  | 4.07 | Inactive |  | 
12 | CC[C@H](C)[C@H](NC(=O)[C@@H](Cc1ccc2ccccc2c1)NC(=O)[C@H](CO)NC(=O)[C@H](Cc1ccccc1)NC(=O)CNC(=O)[C@@H]1CCCN1C(=O)[C@@H]1CCCN1C(=O)[C@H](CCCNC(=N)N)NC(=O)[C@H](CCCCN)NC(=O)CCCCCNC(=O)[C@H](Cc1cc(I)c(O)c(I)c1)NC(=O)CNC)C(=O)O [Compound 30, SarTyr(3,5-I)εAhxLys(D-βNal^7, Ile^8)desArg^9BK] (H-[Sar][Tyr(3,5-I2)][Ahx]KRPPGFS[d2Nal]I-OH; N-terminus and C-terminus assumed) |  | 4.79 | Inactive |  | 
